In patent US20190255138A1, “A NATURAL COMPOSITION TO INHIBIT BETA-SECRETASE AND ENHANCE BIOAVAILABILITY COMPRISING OF TURMERIC AND SESAME SEED EXTRACT” (priority 2016, published 2019):
Non-standard residues stand in square brackets, D forms with d. No end group written: not given here. Sta = CC(C)C[C@H](N)[C@@H](O)CC(=O)O

Molecular target: β-Secretase (human, recombinant) (Homo sapiens, UniProt P56817)
Test: β-Secretase inhibitory activity assay (fluorescent substrate, HPLC peak area of degradative fragment)
Assay type: biochemical
Settings: inhibitor 2 μg/ml; for Peak area ± S.D.: mean ± S.D. of triplicates
Description: (§1) β-Secretase (human, recombinant), A fluorescent substrate [MOCAc-[…](Dnp) Arg-Arg-NH2] and a β-secretase inhibitor[[…]Sta-Val-Ala-Glu-Phe(Sta:(3S,4S)-4-amino-3-hydroxy-6-methylheptanoic acid)] Other reagents used in this study were analytical grade. Sesamin-sesamolin in different ratios prepared as per examples 10.
(§2) Samples in a dimethylsulfoxide solution (2 μl), at an appropriate concentration, were diluted with 78 μl of assay buffer (20 mM acetate buffer, pH=4.5 containing 1% triton X-100) in a 96-well microplate. 10 μl of β-secretase solution in assay buffer (17.4 μg protein/ml) was added to the diluted solution, and incubated at 37° C. for 20 min. After incubation, 10 μl of substrate solution with assay buffer (0.1 mM) was added and incubated at 37° C. for 2 h. Fifty μl of reaction solution was then added to 450 μl of 2.5 M sodium acetate solution to terminate the reaction. The diluted solution was analyzed by HPLC applying the conditions listed below. Column: L-column ODS (Chemicals Evaluation and Research Institute, Tokyo, Japan, 4.6 i.d.×250 mm), mobile phase; 0.1% (v/v) formic acid/acetonitrile (0.1% (v/v) formic acid); 0 min (9:1), 17.5 min (5.5:4.5), 17.6 min (0.5:9.5), 22.5 min (0.5:9.5), column temperature: 40° C., flow rate; 1 ml/min, detection; fluorescent of excitation at 325 nm and emission at 395 nm, injection volume; 20 μl. The peak area of the peak derived from the degradative fluorescent fragment (retention time 15.7 min) was integrated and the peak area was found. The inhibitory activity of the sample was calculated using the following equation.
Inhibition (%)=100−[(Peak area from sample group)/(Peak area from control group)×100]
as §1, with “recombinant).” for “recombinant),”, “acid)].” for “acid)]”, “Essential oil of turmeric (EOT) with” for “Sesamin-sesamolin in”, “percentage of α-turmerone” for “ratios”, “2.” for “10.”
as §2, with “temperature;” for “temperature:”
β-Secretase (human, recombinant), A fluorescent substrate [MOCAc-[…](Dnp) Arg-Arg-NH2] and a β-secretase inhibitor[[…]Sta-Val-Ala-Glu-Phe(Sta:(3S,4S)-4-amino-3-hydroxy-6-methylheptanoic acid)]. Other reagents used in this study were analytical grade.
Samples in a dimethylsulfoxide solution (2 μl), at an appropriate concentration, were diluted with […] of assay buffer (20 mM acetate buffer, pH=4.5 containing 1% triton X-100) in a 96-well microplate. 10 μl of β-secretase solution in assay buffer (17.4 μg protein/ml) was added to the diluted solution, and incubated at 37° C. for 20 min.

Chain of β-Secretase (human, recombinant) (P56817 46-501): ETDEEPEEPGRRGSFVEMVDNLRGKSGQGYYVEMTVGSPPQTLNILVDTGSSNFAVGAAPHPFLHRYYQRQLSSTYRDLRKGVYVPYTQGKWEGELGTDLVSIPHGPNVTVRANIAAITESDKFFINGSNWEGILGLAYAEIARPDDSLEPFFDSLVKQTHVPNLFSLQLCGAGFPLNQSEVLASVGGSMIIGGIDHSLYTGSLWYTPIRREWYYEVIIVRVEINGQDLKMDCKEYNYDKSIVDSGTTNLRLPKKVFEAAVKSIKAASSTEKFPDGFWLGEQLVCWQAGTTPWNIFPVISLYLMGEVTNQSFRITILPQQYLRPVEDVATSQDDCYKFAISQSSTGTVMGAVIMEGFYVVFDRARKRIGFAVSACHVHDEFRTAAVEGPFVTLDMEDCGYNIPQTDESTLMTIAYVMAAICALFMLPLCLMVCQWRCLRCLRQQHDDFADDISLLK

Inhibition (%) (Example 17): 47.33%
Peak area ± S.D. (Example 17): 2256512 ± 24323
Inhibition (%) (Example 18): 45.67%
Peak area ± S.D. (Example 18): 2386115 ± 25498
Inhibition (%) (Example 19): 48.31%
Peak area ± S.D. (Example 19): 2418426 ± 23621
Inhibition (%) (Example 20): 48.8%
Peak area ± S.D. (Example 20): 2299129 ± 25842
Inhibition (%) (Example 22): 45.77%
Peak area ± S.D. (Example 22): 2385632 ± 27453
Substance: KTEEISEVN[Sta]VAEF [Inhibitor]
